{"source": "patent US6281354A", "about": "“Analogs of duocarmycin and cc-1065” (The Scripps Research Institute, priority 1999, dated 2001)", "key": {"[1]": {"test_system": "duplex DNA (w794, w836, c988, c820, c1346)", "type": "biochemical, SV40", "conditions": "for sequence preference at the alkylation site: consensus alkylation sequence; for concentration at which DNA is alkylated / more efficient DNA alkylation than (+)-N--BOC-DSA: natural enantiomers"}, "[2]": {"experiment": "Chemical/aqueous solvolysis reactivity followed by UV", "type": "physicochemical", "conditions": "for solvolysis rate constant κ, pH 3: pH 3, 50% CH3 OH-buffer", "text": "The solvolysis reactivities of N--BOC-CNA (78) and CNA (79) were followed spectrophotometrically by UV at both pH 3 (50% CH3 OH-buffer, buffer=4:1:20 v/v/v 0.1 M citric acid, 0.2 M Na2 HPO4, H2 O) and pH 7 (50% CH3 OH--H2 O). […] Particularly informative are comparisons of the benzo series of agents that differ only in the C-ring size (i.e., 76-79). Solvolysis reactivity smoothly increases through the series CBI<CBQ<CNA with both the N--BOC derivatives and the free NH derivatives.\nAqueous Solvolysis of N--BOC-CNA (78) and CNA (79). Samples of 78 (150 μg) and 79 (150 [g) were dissolved in CH3 OH (1.5 mL) and the resulting solutions were mixed with aqueous buffer (pH 3, 1.5 mL, 4:1:20 (v:v:v) 0.1 M citric acid, 0.2 M Na2 HPO4, and deionized H2 O respectively). Similarly, a solution of 78 (150 μg) in CH3 OH (1.5 mL) was mixed with deionized H2 O (pH 7, 1.5 mL). The UV spectra of the solutions were measured immediately after mixing with the appropriate aqueous solution. The blank and the solvolysis reaction solutions were stoppered, protected from light, and allowed to stand at 25° C. The total reaction times reflect those required to observe no further change in absorbance. For the solvolysis of 78 at pH 3, the UV spectrum was taken every 30 s for 10 min and then every 3 min for the next 40 min. The decrease of the absorbance at 319 nm was monitored. […] For the solvolysis of 78 at pH 7, the UV spectrum was monitored every 5 min for 19 h. […] For the solvolysis of 79 at pH 3, the UV spectrum was monitored every 2 min for the first 110 min and then every 10 min for the next 4 h. The decrease in the absorbance at 345 nm was recorded."}, "[3]": {"conditions": "50% ch3oh-buffer, pH 3, pH 3, 50% CH3 OH-buffer, 25° C., read-out: solvolysis t1/2, pH 3 (h) (converted)"}, "[4]": {"conditions": "50% ch3oh-buffer, pH 3, pH 3, 50% CH3 OH-buffer, 25° C., read-out: solvolysis t1/2, pH 3 (min)"}}, "note": "Like-named read-outs stand apart in the source and are kept apart here."}
{"compound": "COC(=O)c1cc2c([nH]1)C(=O)C=C1N(C(=O)OC(C)(C)C)C[C@H]3C[C@]123", "note": "[(+)-N--BOC-DSA]", "values": [{"measurement": "AT-rich adenine N3 alkylation selectivity (size of site)", "setting": "[1]", "value": 2, "unit": "base-pair"}]}
{"compound": "O=C1C=C2NCC3CC23c2ccccc21", "note": "(stereo not shown) [CBI, reference compound]", "values": [{"measurement": "solvolysis reactivity difference, CBI versus CBQ", "setting": "[2]", "value": "10 -fold"}, {"measurement": "solvolysis reactivity/stability in words or rank order", "setting": "[2]", "value": "CBI<CBQ<CNA"}]}
{"compound": "O=C1C=C2NCCC3CC23c2ccccc21", "note": "(stereo not shown) [CBQ, reference compound]", "values": [{"measurement": "solvolysis reactivity difference, CBI versus CBQ", "setting": "[2]", "value": "10 -fold"}, {"measurement": "solvolysis reactivity/stability in words or rank order", "setting": "[2]", "value": "CBI<CBQ<CNA"}]}
{"compound": "COC(=O)c1cc2c([nH]1)C(=O)C=C1N(C(=O)OC(C)(C)C)CC3CC123", "note": "(stereo not shown) [N--BOC-DSA]", "values": [{"measurement": "AT-rich adenine N3 alkylation selectivity (size of site)", "setting": "[1]", "value": 2, "unit": "base-pair"}, {"measurement": "reaction time required for substantial or complete DNA alkylation", "setting": "[1]; 25-37° C.", "value": "2 to 7", "unit": "days"}, {"measurement": "sequence preference at the alkylation site", "setting": "[1]", "value": "5'-AA>5'-TA"}]}
{"compound": "COC(=O)c1cc2c([nH]1)C(=O)C=C1N(C(C)=O)CC3CC123", "note": "(stereo not shown) [compound 40, Methyl 2-Acetyl-1,2,8,8a-tetrahydrocyclopropa[c]pyrrolo[3,2-e]indol-4-one-6-carboxylate]", "values": [{"measurement": "sequence preference at the alkylation site", "setting": "[1]", "value": "5'-AA>5'-TA"}, {"measurement": "concentration at which DNA is alkylated", "setting": "[1]", "value": "10^-3 M"}, {"measurement": "more efficient DNA alkylation than (+)-N--BOC-DSA", "setting": "[1]", "value": "approximately 10 ×"}, {"measurement": "unnatural enantiomer less effective at DNA alkylation than natural enantiomer", "setting": "[1]", "value": "approximately 10 ×"}]}
{"compound": "COC(=O)c1cc2c([nH]1)C(=O)C=C1N(C(=O)OC)CC3CC123", "note": "(stereo not shown) [compound 41, Methyl 2-(Methoxycarbonyl)-1,2,8,8a-tetrahydrocyclopropa[c]pyrrolo[3,2-e]indol-4-one-6-carboxylate]", "values": [{"measurement": "sequence preference at the alkylation site", "setting": "[1]", "value": "5'-AA>5'-TA"}, {"measurement": "concentration at which DNA is alkylated", "setting": "[1]", "value": "10^-3 M"}, {"measurement": "more efficient DNA alkylation than (+)-N--BOC-DSA", "setting": "[1]", "value": "approximately 10 ×"}, {"measurement": "unnatural enantiomer less effective at DNA alkylation than natural enantiomer", "setting": "[1]", "value": "approximately 10 ×"}]}
{"compound": "CC(C)(C)OC(=O)N1CCCC2CC23C1=CC(=O)c1ccccc13", "note": "(stereo not shown) [compound 78]", "values": [{"measurement": "more reactive than N--BOC-DSA (solvolysis)", "setting": "[2]", "value": "10^3 -10^4 ×"}, {"measurement": "more reactive than the corresponding CBI derivative (solvolysis)", "setting": "[2]", "value": 4750, "unit": "×"}, {"measurement": "solvolysis reactivity/stability in words or rank order", "setting": "[2]", "value": "sufficiently reactive to undergo rapid solvolysis even at pH 7"}, {"measurement": "half-life", "setting": "[2]; [3]", "value": 0.028, "unit": "h"}, {"measurement": "half-life", "setting": "[2]; [4]", "value": 0.0283, "unit": "h"}, {"measurement": "half-life", "setting": "[2]; 50% ch3oh-h2o, pH 7, pH 7, 50% CH3 OH--H2 O, 25° C., read-out: solvolysis t1/2, pH 7 (converted)", "value": 2.1, "unit": "h"}, {"measurement": "half-life", "setting": "[2]; 50% methanol-water, pH 7, pH 7, no added acid catalysis, read-out: solvolysis t1/2, pH 7 (converted)", "value": 2.1, "unit": "h"}, {"measurement": "solvolysis reactivity/stability in words or rank order", "setting": "[2]; listed as N--BOC-CNA", "value": "between that of N--BOC-CBQ and the exceptionally reactive N--BOC-CI"}, {"measurement": "solvolysis rate constant κ, pH 3", "setting": "[2]; 25° C.", "value": "6.90×10^-3 s^-1"}, {"measurement": "solvolysis rate constant κ, pH 7", "setting": "[2]; pH 7, 50% CH3 OH--H2 O, 25° C.", "value": "9.16×10^-5 s^-1"}, {"measurement": "solvolysis t1/2, pH 7 (h)", "setting": "[2]; pH 7, no added acid catalysis", "value": 2.1, "unit": "h"}]}
{"compound": "O=C1C=C2NCCCC3CC23c2ccccc21", "note": "(stereo not shown) [compound 79, 1,2,3,4,11,11a-Hexahydrocyclopropa[c]naphtho[2,1-b]azepin-6-one]", "values": [{"measurement": "more reactive than the corresponding CBI derivative (solvolysis)", "setting": "[2]", "value": 1500, "unit": "×"}, {"measurement": "reactivity difference, CNA versus CBQ", "setting": "[2]", "value": "over a hundred-fold difference in reactivity"}, {"measurement": "solvolysis reactivity/stability in words or rank order", "setting": "[2]", "value": "sufficiently reactive to undergo rapid solvolysis even at pH 7"}, {"measurement": "half-life", "setting": "[2]; [3]", "value": 0.62, "unit": "h"}, {"measurement": "half-life", "setting": "[2]; [4]", "value": 0.617, "unit": "h"}, {"measurement": "solvolysis reactivity/stability in words or rank order", "setting": "[2]; listed as CNA", "value": "CBI<CBQ<CNA"}, {"measurement": "solvolysis reactivity/stability in words or rank order", "setting": "[2]; listed as CNA (79)", "value": "considerably more stable than N--BOC-CNA (78)"}, {"measurement": "solvolysis rate constant κ, pH 3", "setting": "[2]; 25° C.", "value": "3.10×10^-4 s^-1"}]}
{"compound": "COC(=O)c1cc2c([nH]1)C(=O)C=C1N(C(=O)OC(C)(C)C)C[C@@H]3C[C@@]123", "note": "[ent-(-)-N--BOC-DSA]", "values": [{"measurement": "AT-rich adenine N3 alkylation selectivity (size of site)", "setting": "[1]", "value": 2, "unit": "base-pair"}]}
{"compound": "COC(=O)c1cc2c([nH]1)C(=O)C=C1N(C(=O)c3cc4cc(OC)c(OC)c(OC)c4[nH]3)C[C@@H]3C[C@@]123", "note": "[ent-(-)-duocarmycin SA, reference compound]", "values": [{"measurement": "AT-rich adenine N3 alkylation selectivity (size of site)", "setting": "[1]", "value": 3.5, "unit": "base-pair"}]}
